Data: patent US5847107A, “Method of preparing mixed glucosamine salts” (Rotta Research B.V. Amsterdam (Swiss Branch), priority 1996, dated 1998)

Experiments:
[1] = Stability at 25° C. and 60% R.H. (appearance, titre); type: physicochemical
[2] = Solubility (25° C. - w/v); type: physicochemical; settings: for Solubility in acetone, acetonitrile, tetrahydrofuran, dioxane: practically insoluble; for Solubility in methanol: slightly soluble; for Solubility in ethanol: very slightly soluble; for Solubility in water: very soluble
[3] = pH of a saturated aqueous solution at 20° C.; type: physicochemical
[4] = Partition coefficient in phosphate buffer (pH 6.8)/n-octanol at 25° C.; type: physicochemical
[5] = Stability at 40° C. and 85% R.H. (appearance, titre); type: physicochemical
[6] = cited from earlier work
[7] = 0 months, (*): Crystalline powder of pale cream colour
[8] = 18 months (after slight yellowing at 12 months)
[9] = 24 months (after slight yellowing at 12 months)

Cl.N[C@H]1C(O)O[C@H](CO)[C@@H](O)[C@@H]1O.O=S(=O)([O-])[O-].[Mg+2] (some centres unmarked) [Example 8]
Titre ([1]; 0 months): 100.5%
Appearance [1, 7]: conforms
Appearance ([1]; 3 months): unchanged
Titre ([1]; 3 months, 131400 min): 100.1%
Appearance ([1]; 6 months): unchanged
Titre ([1]; 6 months, 262800 min): 99.8%
Appearance ([1]; 9 months): unchanged
Titre ([1]; 9 months, 394200 min): 100.3%
Appearance ([1]; 12 months): unchanged
Titre ([1]; 12 months, 525600 min): 100.6%
Solubility in benzene, chloroform, carbon tetrachloride, methylene chloride, ligroin, ethyl ether [2]: Insoluble
Solubility in acetone, acetonitrile, tetrahydrofuran, dioxane [2]: < 0.01 % (w/v)
Solubility in methanol [2]: about 1 % (w/v)
Solubility in ethanol [2]: about 0.03 % (w/v)
Solubility in water [2]: about 40 % (w/v)
pH of a saturated aqueous solution [3]: 3 +/-0.2
Partition coefficient [4]: practically infinite
Titre ([5]; 0 months): 100.5%
Appearance [5, 7]: conforms
Appearance ([5]; 3 months): unchanged
Titre ([5]; 3 months, 129600 min): 100.6%
Appearance ([5]; 6 months): unchanged
Titre ([5]; 6 months, 259200 min): 100.1%
Appearance ([5]; 9 months): unchanged
Titre ([5]; 9 months, 388800 min): 100.2%
Titre ([5]; 12 months, 518400 min): 97.4%
Appearance [5, 8]: unchanged
Titre ([5]; 18 months, 777600 min): 97.7%
Appearance [5, 9]: unchanged
Titre ([5]; 24 months, 1.0368e+06 min): 97.3%

N[C@H]1C(O)O[C@H](CO)[C@@H](O)[C@@H]1O.O=S(=O)(O)O (some centres unmarked) [glucosamine sulphate, reference compound]
Hygroscopicity ([6]; background statement): highly hygroscopic

Cl.N[C@H]1C(O)O[C@H](CO)[C@@H](O)[C@@H]1O.O=S(=O)([O-])[O-].[K+].[K+] (some centres unmarked) [Example 6]
Titre ([1]; 0 months): 100.1%
Appearance [1, 7]: conforms
Appearance ([1]; 3 months): unchanged
Titre ([1]; 3 months, 131400 min): 100.3%
Appearance ([1]; 6 months): unchanged
Titre ([1]; 6 months, 262800 min): 99.8%
Appearance ([1]; 9 months): unchanged
Titre ([1]; 9 months, 394200 min): 99.6%
Appearance ([1]; 12 months): unchanged
Titre ([1]; 12 months, 525600 min): 100.3%
Solubility in benzene, chloroform, carbon tetrachloride, methylene chloride, ligroin, ethyl ether [2]: Insoluble
Solubility in acetone, acetonitrile, tetrahydrofuran, dioxane [2]: < 0.01 % (w/v)
Solubility in methanol [2]: about 1 % (w/v)
Solubility in ethanol [2]: about 0.03 % (w/v)
Solubility in water [2]: about 40 % (w/v)
pH of a saturated aqueous solution [3]: 3 +/-0.2
Partition coefficient [4]: practically infinite
Titre ([5]; 0 months): 100.1%
Appearance [5, 7]: conforms
Appearance ([5]; 3 months): unchanged
Titre ([5]; 3 months, 129600 min): 100.3%
Appearance ([5]; 6 months): unchanged
Titre ([5]; 6 months, 259200 min): 99.8%
Appearance ([5]; 9 months): unchanged
Titre ([5]; 9 months, 388800 min): 100.0%
Titre ([5]; 12 months, 518400 min): 95.7%
Appearance [5, 8]: unchanged
Titre ([5]; 18 months, 777600 min): 96.2%
Appearance [5, 9]: unchanged
Titre ([5]; 24 months, 1.0368e+06 min): 95.5%

Cl.N[C@H]1C(O)O[C@H](CO)[C@@H](O)[C@@H]1O (some centres unmarked) [glucosamine hydrochloride, reference compound]
Stability on storage ([6]; no particular precautions in time, temperature or humidity): stable
